Reference: US8940936B2, “Aryloxy phenoxy acrylic compound having HIF-1 inhibition activity, method for preparing same, and pharmaceutical composition containing same as an active ingredient” (Korea Research Institute of Bioscience and Biotechnology, priority 2010, dated 2015)

System: HIF-1
Assay: Inhibition of HIF-1 mediated HRE transcription activity (pGL3-HRE-luciferase reporter)
Type: cell-based, human
Conditions: HCT116, hypoxic condition 12 hours
Description: To investigate the inhibition of HIF-1 transcription activity by the compound of the present invention, pGL3-basic vector (Promega) using luciferase as a reporter was cloned in multi-cloning site so as for HRE (Hypoxia Responsive Element, 5′-ACGTG-3′) existing in human VEGF gene to be repeated 6 times, resulting in the construction of pGL3-HRE-luciferase vector.
The human rectal cancer cell line HCT116 was seeded in a 48-well cell culture vessel. On the next day, the cells were transfected with 25 ng of pGL3-HRE-luciferase vector and 2.5 ng of Renilla control vector by using Polyfect reagent. After culturing the cells for 24 hours, the medium was replaced, followed by further culture for 4 hours. Then, the cells were treated with the compound prepared in each example at the concentration of 10 μM respectively, followed by culture in hypoxic condition (oxygen 1%, nitrogen 94%, carbon dioxide 5%) for 12 hours. Lysate was obtained by using RIPA buffer, by which hypoxia-induced luciferase activity was measured by using dual-luciferase assay system (Promega). Hypoxia-induced luciferase activity after the treatment of the compound prepared in example 1 or the compound prepared in comparative example 1 was measured by the same manner as described above except that the compound was treated at the concentrations of 0, 1, 3, 5, 10, and 20 μM. HIF-1 inhibition activity of each compound prepared in example 1 and comparative example 1 respectively was compared and the results are shown in Table 2 and FIG. 2.

In the case of `COC(=O)c1ccc(O)c(NC(=O)COc2ccc(C34CC5CC(CC(C5)C3)C4)cc2)c1` [Comparative Example 1, 3-[2-(4-adamantan-1-yl-phenoxy)-acetylamino]-4-hydroxy-benzoic acid methyl ester, reference compound], the “HRE transcription activity (%)” value (1 μM) was 119.4%, the “HRE transcription activity (%)” value (3 μM) was 121.5% and the “HRE transcription activity (%)” value (5 μM) was 98.8%. The “HRE transcription activity (%)” value (10 μM) was 75.6% and the “HRE transcription activity (%)” value (20 μM) was 43.1%.
